Assay results from patent US8633232B2, “Compounds, compositions and methods of using same for modulating uric acid levels” (Ardea Biosciences, Inc., priority 2008, dated 2014).

Molecular target: T1, hURAT1 Transporter (Homo sapiens, UniProt Q96S37)
T1 construct: Full-length human URAT1 gene (SLC22A12) was subcloned from plasmid pCMV6-XL5
T1 sequence (Q96S37 1-553): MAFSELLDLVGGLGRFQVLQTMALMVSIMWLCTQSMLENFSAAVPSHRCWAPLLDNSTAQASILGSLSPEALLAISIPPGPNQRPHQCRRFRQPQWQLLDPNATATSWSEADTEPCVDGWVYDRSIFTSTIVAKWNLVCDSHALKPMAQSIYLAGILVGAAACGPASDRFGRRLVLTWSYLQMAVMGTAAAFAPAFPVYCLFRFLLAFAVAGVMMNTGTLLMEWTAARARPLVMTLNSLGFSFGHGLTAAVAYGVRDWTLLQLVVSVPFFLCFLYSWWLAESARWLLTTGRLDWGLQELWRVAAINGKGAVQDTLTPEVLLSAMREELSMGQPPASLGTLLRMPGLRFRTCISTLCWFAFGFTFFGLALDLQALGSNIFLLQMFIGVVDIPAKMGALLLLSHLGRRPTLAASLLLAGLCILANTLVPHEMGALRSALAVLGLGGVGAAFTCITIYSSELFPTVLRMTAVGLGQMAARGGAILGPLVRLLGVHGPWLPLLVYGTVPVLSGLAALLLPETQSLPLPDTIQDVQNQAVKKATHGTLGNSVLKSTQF
Assay: Uric Acid Uptake Assay
Format: cell-based
Conditions: HEK293/urat1 cells; C14 Uric Acid 40 μM; 10 minutes at room temperature
From the text: Creation of Stable Cell Lines Expressing hURAT1 Transporter: Full-length human URAT1 gene (SLC22A12) was subcloned from plasmid pCMV6-XL5 (Origene) into eukaryotic expression plasmid pCMV6/Neo (Origene) using Not I restriction sites. Gene sequencing confirmed the sequence of hURAT1 as outlined in Genbank (Accession #NM_144585.2). HEK293 human embryonic kidney cells (ATCC#CRL-1573) were propagated in EMEM tissue culture medium as described by ATCC in an atmosphere of 5% CO2 and 95% air. Transfections of HEK293 cells with the pCMV6/Neo/URAT1 construct were performed using L2000 transfection reagent (Invitrogen) as described by the manufacturer. After 24 h the transfected cells were split into 10 cm tissue culture plates and grown for 1 day after which the medium was replaced with fresh growth medium containing G418 (Gibco) at 0.5 mg/ml final concentration. Drug-resistant colonies were selected after approximately 8 days and then tested for ^14C-uric acid transport activity. The HEK293/urat1 cells are plated on Poly-D-Lysine Coated 96-well Plates at a density of 75,000 cells per well.
Cells were grown overnight (20-26 hours) at 37° C. in an incubator. Plates were allowed to come to room temperature and media was washed out with one wash of […] of Wash Buffer (125 mM Na Gluconate, 10 mM Hepes ph 7.3). Compound or vehicle is added in assay buffer with C14 Uric Acid for a final concentration of 40 μM Uric Acid with a specific activity of 54 mCi/mmol. Assay Buffer is 125 mM Sodium Gluconate, 4.8 mM Potassium Gluconate, 1.2 mM Potassium phosphate, monobasic, 1.2 mM magnesium sulfate, 1.3 mM Ca Gluconate, 5.6 mM Glucose, 25 mM HEPES, pH 7.3. Plates were incubated at room temperature for 10 minutes then washed 3 times with 50 μl Wash Buffer and 3 times with 250 μl Wash Buffer. Microscint 20 Scintillation Fluid was added and plates were incubated overnight at 45° C. to equilibrate. Plates are then read on the TopCount Plate Reader and an EC50 value generated. (See Enomoto et al, Nature, 2002, 417, 447-451 and Anzai et al, J. Biol. Chem., 2004, 279, 45942-45950.).
Compounds prepared as described herein, were examined according to the procedure described above and EC50 values generated. […] (N/A means data not available).

Structure (SMILES)	EC50 [µM]
Cc1nnc(SCC(=O)O)n1Cc1ccccc1	> 30
Cc1nnc(SCC(=O)O)n1-c1ccc2c(c1)OCCO2	> 30
CCOC(=O)CSc1nncn1-c1ccc(C)c2c1CCCN2	> 30
CCOC(=O)CSc1nncn1-c1c(C)cc(C)c2c1CCCC2	1 to 30
CCOC(=O)CSc1nncn1-c1ccc(C)c2c1CCCC2	1 to 30
Cc1cc(C)c(-n2cnnc2SCC(=O)O)c2c1CCCC2	> 30
Cc1ccc(-n2cnnc2SCC(=O)O)c2c1CCCC2	> 30
Cc1ccc(-n2cnnc2SCC(=O)O)c2c1NCCC2	> 30
Cc1nnc(SCC(=O)O)n1-c1ccc(N(C)C)c2ccccc12	> 30
Cc1nnc(SCC(=O)O)n1-c1cccc2cccnc12	> 30
Cc1ccc(-n2c(C)nnc2SCC(=O)O)cc1C	> 30
Cc1nnc(SCC(=O)O)n1-c1ccccc1Cl	> 30
Cc1nnc(SCC(=O)O)n1-c1ccc(Oc2ccccc2)cc1	> 30
Cc1nnc(SCC(=O)O)n1-c1ccc(C(F)(F)F)cc1	> 30
Cc1ccc(-n2c(C)nnc2SCC(=O)O)c(C)c1	> 30
COc1ccccc1-n1c(C)nnc1SCC(=O)O	> 30
Cc1cccc(C)c1-n1c(C)nnc1SCC(=O)O	> 30
Cc1nnc(SCC(=O)O)n1-c1cc(Cl)ccc1Cl	> 30
Cc1nnc(SCC(=O)O)n1-c1ccc(C(=O)O)cc1	> 30
Cc1nnc(SCC(=O)O)n1-c1cccc(Cl)c1	> 30
Cc1nnc(SCC(=O)O)n1-c1ccccc1F	> 30
Cc1nnc(SCC(=O)O)n1-c1ccccc1C(F)(F)F	> 30
CCOC(=O)CCCSc1nnc(N)n1-c1ccc(C2CC2)c2ccccc12	1 to 30
Nc1nnc(SCCCC(=O)O)n1-c1ccc(C2CC2)c2ccccc12	1 to 30
CCOC(=O)CSc1nnc(N)n1-c1ccc(C2CC2)c2ccccc12	> 30

Structure (SMILES)	EC50 [µM]
Nc1nnc(SCC(=O)O)n1-c1ccc(C2CC2)c2ccccc12	1 to 30
CCOC(=O)C(C)Sc1nnc(N)n1-c1ccc(C2CC2)c2ccccc12 (stereo not drawn)	1 to 30
CC(Sc1nnc(N)n1-c1ccc(C2CC2)c2ccccc12)C(=O)O (stereo not drawn)	1 to 30
CCCSc1nnc(N)n1-c1ccc(C2CC2)c2ccccc12	> 30
CCc1ccc(-n2c(CF)nnc2SCC(=O)O)c2ccccc12	1 to 30
Cc1ccc(-n2c(SCC(=O)O)nnc2C(F)F)c2ccccc12	1 to 30
Cc1ccc(-n2c(SCC(N)=O)nnc2C(F)F)c2c1CCCC2	1 to 30
CC(C)(C)c1ccc(-n2c(SCC(=O)O)nnc2C(F)F)c(Cl)c1	> 30
O=C(O)CSc1nnc(C(F)F)n1-c1ccc(C2CC2)c2ccccc12	1 to 30
COc1ccc(Cl)c(-n2c(SCC(=O)O)nnc2C(F)F)c1	> 30
CCOC(=O)CSc1nnc(C(F)F)n1-c1ccc(OC)c2c1CCCC2	> 30
COc1ccc(-n2c(SCC(=O)O)nnc2C(F)F)c2c1CCCC2	1 to 30
CCOC(=O)CSc1nnc(C(F)F)n1-c1ccc(C)c2c1CCCN2	> 30
CCOC(=O)CSc1nnc(C(F)F)n1-c1c(C)cc(C)c2ccccc12	> 30
Cc1cc(C)c2ccccc2c1-n1c(SCC(=O)O)nnc1C(F)F	1 to 30
Cc1ccc(-n2c(SCC(=O)O)nnc2C(F)F)c2c1NCCC2	> 30
O=C(O)CSc1nnc(C(F)(F)F)n1-c1cccc2ccccc12	1 to 30
CCOC(=O)CSc1nnc(C(F)(F)F)n1-c1ccc(OC)c2c1CCCC2	> 30
CCOC(=O)CSc1nnc(C(F)(F)F)n1-c1ccc(C)c2c1CCCC2	1 to 30
Cc1ccc(-n2c(SCC(=O)O)nnc2C(F)(F)F)c2c1CCCC2	0.001 to 1
COc1ccc(-n2c(SCC(=O)O)nnc2C(F)(F)F)c2c1CCCC2	1 to 30
Cc1ccc(-n2c(Br)nnc2SCC(=O)O)c2ccccc12	1 to 30
O=C(O)CSc1nnc(Br)n1-c1cccc2ccccc12	1 to 30
CCc1ccc(-n2c(Br)nnc2SCC(=O)OC)c2ccccc12	0.001 to 1
CCc1ccc(-n2c(Br)nnc2SCC(=O)O)c2ccccc12	0.001 to 1

Structure (SMILES)	EC50 [µM]
CCOC(=O)CCCSc1nnc(Br)n1-c1ccc(C2CC2)c2ccccc12	1 to 30
CCOC(=O)CSc1nnc(Br)n1-c1ccc(C2CC2)c2ccccc12	0.001 to 1
O=C(O)CCCSc1nnc(Br)n1-c1ccc(C2CC2)c2ccccc12	0.001 to 1
COc1ccc2c(C3CC3)ccc(-n3c(Br)nnc3SCC(=O)O)c2c1	1 to 30
O=C(O)CSc1nnc(Br)n1-c1cccc2c(OCC3CC3)cccc12	> 30
CC(C)(C)c1ccc(-n2c(Br)nnc2SCC(=O)O)c(Cl)c1	> 30
COc1ccc2c(Br)ccc(-n3c(Br)nnc3SCC(=O)O)c2c1	1 to 30
CCc1ccc(-n2c(Br)nnc2SCC(=O)O)c2cc(OC)ccc12	1 to 30
COc1ccc(Cl)c(-n2c(Br)nnc2SCC(=O)O)c1	> 30
O=C(O)CSc1nnc(Br)n1-c1cc(C(F)(F)F)ccc1Cl	> 30
CCOC(=O)C(C)Sc1nnc(Br)n1-c1ccc(C2CC2)c2ccccc12 (stereo not drawn)	1 to 30
CC(Sc1nnc(Br)n1-c1ccc(C2CC2)c2ccccc12)C(=O)O (stereo not drawn)	0.001 to 1
CCCSc1nnc(Br)n1-c1ccc(C2CC2)c2ccccc12	1 to 30
CC(C)(C)OC(=O)CSc1nnc(Br)n1-c1ccc(C2CC2)c2ccccc12	> 30
CCOC(=O)C(C)(C)Sc1nnc(Br)n1-c1ccc(CC)c2ccccc12	0.001 to 1
O=C(O)CSc1nnc(-c2ccccc2)n1-c1ccc(C2CC2)c2ccccc12	1 to 30
CCOC(=O)CSc1nnc(-c2ccccc2)n1-c1ccc(C2CC2)c2ccccc12	1 to 30
CCc1ccc(-n2c(Br)nnc2SC(C)(C)C(=O)O)c2ccccc12 [2-(5-bromo-4-(4-ethylnaphthalen-1-yl)-4H-1,2,4-triazol-3-ylthio)-2-methylpropanoic acid]	0.001 to 1
Cc1cc(C)c(-n2c(SCC(=O)O)nnc2C(F)(F)F)c2c1CCCC2 [Example 1A, 2-(4-(2,4-Dimethyl-5,6,7,8-tetrahydronaphthalen-1-yl)-5-(trifluoromethyl)-4H-1,2,4-triazol-3-ylthio)acetic acid]	1 to 30
Cc1ccc2c(C)ccc(-n3cnnc3SCC(=O)O)c2c1 [Example 2, 2-(4-(4,7-Dimethylnaphthalen-1-yl)-4H-1,2,4-triazol-3-ylthio)acetic acid]	> 30
CCc1ccc(-n2c(SCC(=O)O)nnc2C(F)F)c2ccccc12 [Example 4, 2-(5-(difluoromethyl)-4-(4-ethylnaphthalen-1-yl)-4H-1,2,4-triazol-3-ylthio)acetic acid]	1 to 30
CC(C)(Sc1nnc(N)n1-c1ccc(C2CC2)c2ccccc12)C(=O)O [Example 5, 2-(5-amino-4-(4-cyclopropylnaphthalen-1-yl)-4H-1,2,4-triazol-3-ylthio)-2-methylpropanoic acid]	> 30
CC(C)(Sc1nnc(C(F)(F)F)n1-c1ccc(C2CC2)c2ccccc12)C(=O)O [Example 9, 2-(4-(4-Cyclopropylnaphthalen-1-yl)-5-(trifluoromethyl)-4H-1,2,4-triazol-3-ylthio)-2-methylpropanoic acid]	0.001 to 1
CC(C)(C)OC(=O)C(C)(C)Sc1nnc(Br)n1-c1ccc(C2CC2)c2ccccc12 [Example 101, tert-Butyl 2-(5-bromo-4-(4-cyclopropylnaphthalen-1-yl)-4H-1,2,4-triazol-3-ylthio)-2-methylpropanoate]	> 30
COC(=O)CSc1nnc(Br)n1-c1ccc(C2CC2)c2ccccc12 [Example 102, Methyl 2-(5-bromo-4-(4-cyclopropylnaphthalen-1-yl)-4H-1,2,4-triazol-3-ylthio)acetate]	1 to 30
